# From article PMC10801775 (The Journal of Pharmacology and Experimental Therapeutics, 2024)
# Columns and labels:
# [1] = set-up: species or system Sprague-Dawley rats; details: rat, in vivo
# [2] = rat, in vivo
smiles,measurement,setting,value
"CCOP(=O)(OCC)Oc1ccc([N+](=O)[O-])cc1 [POX, O,O-diethyl-O-p-nitrophenylphosphate]",brain AUC as % of naïve,[1],> 80%
same,"heart AUC restored, % of naïve AUC level",[1],25%
same,liver AUC increase versus naïve,[1],4 fold
same,"lung AUC restored, % of naïve AUC level",[1],50%
same,mean brain region radioactivity higher than naïve rats,[1],up to 2 fold
same,RBC fraction relative to naïve and 60-minute studies,[2],about twice
same,"RBC fraction, % of total radioactivity",[2],20%
same,metabolite level in blood relative to naïve rats (or rats 60 minutes after POX),[2],5 fold
same,reduction of total percent radioactivity of plasma proteins,[2],~20%
